Source: PubChem BioAssay (NCI)
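1) Cells in 96-well plates. 2) Compound, 48 h, 5 concentrations. 3) Linear interpolation between surrounding doses. 4) Unreached endpoint = highest concentration. GI50 = concentration required for 50% inhibition of growth. TGI denotes the concentration required for complete inhibition of growth.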

Legend:
Assay in all cases: NCI tumour cell line growth inhibition, 48 h
SNB-75 CNS = test system: SNB-75 CNS
SNB-19 CNS = test system: SNB-19 CNS
EKVX NSCLC = test system: EKVX NSCLC
U251 CNS = test system: U251 CNS
SW-620 colon = test system: SW-620 colon
HCT-15 colon = test system: HCT-15 colon
NCI-H226 lung = test system: NCI-H226 lung
M14 melanoma = test system: M14 melanoma
LOX IMVI melanoma = test system: LOX IMVI melanoma
MOLT-4 leukemia = test system: MOLT-4 leukemia

Compound	GI50 (SNB-75 CNS) [µM]	TGI (SNB-75 CNS) [µM]	GI50 (SNB-19 CNS) [µM]	TGI (SNB-19 CNS) [µM]	GI50 (EKVX NSCLC) [µM]	TGI (EKVX NSCLC) [µM]	GI50 (U251 CNS) [µM]	TGI (U251 CNS) [µM]	GI50 (SW-620 colon) [µM]	TGI (SW-620 colon) [µM]	GI50 (HCT-15 colon) [µM]	TGI (HCT-15 colon) [µM]	GI50 (NCI-H226 lung) [µM]	TGI (NCI-H226 lung) [µM]	GI50 (M14 melanoma) [µM]	TGI (M14 melanoma) [µM]	TGI (LOX IMVI melanoma) [µM]	TGI (MOLT-4 leukemia) [µM]	GI50 (LOX IMVI melanoma) [µM]	GI50 (MOLT-4 leukemia) [µM]
COc1cc2c(=O)n(CCCn3ccnc3)c3c4cc5c(cc4ccc3c2cc1OC)OCO5	0.298	9.45	0.496	42.8	9.72	> 100	0.393	15.8	0.49	> 100	1.17	> 100	0.246	> 100	0.698	> 100	–	–	–	–
C=CCCC(C)N(C(=O)OC(C)(C)C)S(=O)(=O)c1ccc(C)cc1 (stereo not drawn)	–	> 100	–	> 100	–	–	–	> 100	–	> 100	–	> 100	–	> 100	–	> 100	> 100	> 100	–	–
CN(C)Cc1cccc(CN(C)C)[c]1[Sn]([Br])([c]1ccccc1)[c]1ccccc1	21.7	66.2	18.7	48.4	15.2	54.1	3.71	15.5	13.5	29.7	14.5	29.4	–	–	15.9	30.6	20.3	20.5	6.25	5.02
O=C1CC2C(=O)C1C(C(=O)O)C2C(=O)O (stereo not drawn)	–	–	–	> 100	–	> 100	–	> 100	–	> 100	–	> 100	–	> 100	–	> 100	> 100	> 100	–	–
NNC(=O)CCC(=O)Nc1ccc(Cl)cc1Cl	–	> 100	–	> 100	–	–	–	> 100	–	> 100	–	> 100	–	> 100	–	> 100	> 100	> 100	–	–
Cc1cccc2c1O/C(=C\c1ncc([N+](=O)[O-])n1C)C2=O	0.781	3.36	0.615	4.6	–	–	0.371	1.64	0.0888	0.537	0.0874	0.318	1.08	4.29	0.169	0.5	0.387	0.833	0.092	0.0449
CCCCCCCC(=O)OCC1OC(n2cc(F)c(=O)[nH]c2=O)C(NC(=O)OCc2ccccc2)C(OC(=O)CCCCCCC)C1O (stereo not drawn)	–	> 100	–	–	–	> 100	–	60.9	–	> 100	–	> 100	–	–	–	91.7	29.7	> 100	–	–
CC([C@H]1CCC2C3CCC4CC5(CC[C@]4(C)C3CC[C@@]21C)c1ccccc1C(=O)N5C)N(C)C (stereo partly drawn)	–	74.1	–	> 100	–	–	–	> 100	–	> 100	–	> 100	–	–	–	38.7	4.21	91.7	–	–
NCCCn1c2c(c3cc4c(cc3c1=O)OCO4)C(=O)c1ccccc1-2	–	–	4.19	> 100	0.842	2.55	0.321	0.753	–	–	0.554	1.94	4.09	24.8	0.43	1.1	> 100	0.0742	0.14	0.0223
O=C(COc1ccc(Cl)cc1)N1N=C(c2ccc([N+](=O)[O-])o2)CC1(O)c1ccccc1 (stereo not drawn)	–	–	–	25.8	–	–	–	15.5	–	21.5	–	18.5	–	55.6	–	29.5	23.8	47.3	–	–
Cc1[nH]c2ccccc2c1C1CC(=O)NC1=O (stereo not drawn)	–	> 100	–	–	–	> 100	–	> 100	–	> 100	–	> 100	–	> 100	–	> 100	–	> 100	–	–
CC(Oc1ccc(OCC2CCCCC2)cc1)C(=O)O (stereo not drawn)	–	> 100	–	–	–	–	–	> 100	–	> 100	–	> 100	–	> 100	–	> 100	> 100	> 100	–	–
Oc1cccc(Cn2c(-c3cccc(O)c3O)nc3ccccc32)c1O	26.2	> 100	13.8	> 100	–	–	4.44	26.2	6.82	60.1	2.08	14.9	3.95	21.9	3.3	15.5	15.3	> 100	2.84	3.21
